Measured values reported in patent US20250313555A1, “2-SUBSTITUTED THIAZOLE AND BENZOTHIAZOLE COMPOSITIONS AND METHODS AS DUX4 INHIBITORS” (ALTAY THERAPEUTICS, INC., priority 2022, published 2025).

Assays:
Assay type in all cases: cell-based
[1] = Cell cytotoxicity 50 assay (CC50), MB200 cells, cell titer glo; details: human
Summary of the method: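 MB200 cells were seeded at 10 k/well in F10 medium with bFGF, 15% FBS and dexamethasone. Cells were exposed to serially diluted compound (from 10 mM stock) in triplicate for 72 h at 37 °C. Viability was read by CellTiter-Glo luminescence and CC50 was fitted.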

[2] = molecular target: T1, DUX4 (Homo sapiens, UniProt Q9UBX2); assay: DUX4 EC50 luciferase reporter protocol in transfected HEK293 cells; details: 6 hr
T1 construct: expressed in transfected cells; host or cells: HEK293
T1 sequence (Q9UBX2 whole entry): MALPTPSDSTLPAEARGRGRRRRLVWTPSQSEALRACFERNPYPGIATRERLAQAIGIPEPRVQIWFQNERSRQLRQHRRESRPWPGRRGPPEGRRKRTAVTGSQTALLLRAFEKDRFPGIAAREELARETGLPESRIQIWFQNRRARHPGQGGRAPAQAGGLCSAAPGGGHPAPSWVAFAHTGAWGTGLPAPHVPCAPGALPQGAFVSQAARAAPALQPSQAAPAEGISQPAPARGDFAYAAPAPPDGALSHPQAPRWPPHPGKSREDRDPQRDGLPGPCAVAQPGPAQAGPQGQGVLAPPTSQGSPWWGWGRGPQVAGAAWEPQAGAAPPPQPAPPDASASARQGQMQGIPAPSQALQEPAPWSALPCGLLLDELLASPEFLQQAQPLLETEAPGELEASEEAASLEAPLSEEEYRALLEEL
From the text: EC50 Protocol This example provides a representative protocol for a single well of a 96-well plate. It can be scaled up as necessary for treatment of multiple wells. For negative controls, a well containing reporter DNA, Renilla DNA, and turbofect (without expression vector) were used. For positive controls, wells containing cells that were not treated with any inhibitor were used. They were transfected with the complete DNA lipid complex as set forth below. The DNA-lipid complex for one well of the 96-well plate is prepared by adding to a tube 100 ng of the transfection factor (TF) expression vector, 100 ng of TF reporter DNA, 10 ng of Renilla reporter DNA, […] Turbofect transfection reagent, and […] of the medium without any serum or penicillin/streptomycin. The combination was mixed by gentle flicking of the tube, and the mixture was pipetted into a well of a 96-well plate. The plate was then gently tapped to spread the combination evenly on the bottom of the well. The well was incubated for 30 min. HEK293 cells were grown until 80% confluent in DMEM supplemented with 10% fetal bovine serum, 1% penicillin streptomycin, and 1% amphotericin B. The adherent cells growing on a 10 cm plate were trypsinized with 1 mL of prewarmed trypsin. Once the cells detached from the plate, 10 mL of medium was added, and the cells were strained through a […] cell strainer. The cells were counted using a mixture of 10 mL cell suspension with 10 mL of trypan blue. Once the total number of cells are counted, a dilution of 150 k/mL was prepared. After incubation of the transfection complex was complete, […] of HEK293s (23.25 k total cells) were gently dispensed on top of the wells containing the 25 mL transfection complex, producing a total volume of about 180 mL. The mixture was then incubated for 24 h. To treat cells with each inhibitor, the inhibitors were prepared in the same growth medium. In a deep well block, the regular medium with serum was added to well 1 (135 mL) and to wells 2 through 10 (100 mL). To the first well was added 15 mL of 10 nM inhibitor. The final concentration of the drug in well 1 was 1 nM. The wells were pipeted up and down, and 50 mL was transferred from well 1 to well 2 (1/3 dilution). The well was mixed, and the seriation dilution was repeated with the remaining wells. Once the serial dilution was complete, using a multichannel pipet, 20 mL of each inhibitor were transferred to designated wells in a 96-well plate. […] Before the assay, a sufficient amount of 1× passive lysis buffer was prepared. The luciferase substrate buffer (Promega) was thawed completely and then mixed with the lyophilized luciferase substrate. The stop buffer (Promega) was also completely thawed. (1) Cell lysis: After treatment of the cells was complete, all the cell media is removed by flipping the 96-well plate over and tapping it dry on a dry paper towel. Immediately afterwards, the 1× passive lysis buffer (25 μL) was added. The plates were then placed on a rocker for 15 minutes at medium speed. (2)Measuring luciferase signal: The luciferase substrate solution for all wells was placed in a solution basin. The luciferase substrate solution was then added to every well (100 μL/well) using a multichannel pipette. The total luminescence was then read immediately using a plate reader. (3)Measuring Renilla signal: The “complete stop solution” was prepared in a solution basin by mixing the buffer with the 50× stop solution substrate (Promega) to make the final 1× solution. The complete stop solution was added to each well (50 μL/well) using a multichannel pipette. The total luminescence was then read immediately using a plate reader. Using a spreadsheet (e.g., Excel), the luciferase signal was divided by the renilla signal to get a relative luciferase unit.

[3] = Cell cytotoxicity 50 assay (CC50), HEK cells; details: human
Summary of the method: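 Starting from a 10 mM drug solution, serial dilutions were made in medium and added onto HEK cells, which were then incubated 72 h at 37 °C. Viability was read as CellTiter-Glo luminescence after 5 min, and CC50 was obtained by curve fitting.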

[4] = tested on: MBD3L2 RNA; assay: RNA isolation and qPCR to determine MBD3L2 RNA levels in FSHD cells; details: 48 hrs
Procedure: Protocol for RNA Isolation and qPCR to Determine MBD3L2 RNA Levels The protocol describes the process of isolating RNA from cultured cells, converting the RNA to complementary DNA (cDNA), and measuring target gene expression using a quantitative polymerase chain reaction (qPCR). The seed FSHD cells were dispensed into a six-well dish. One day after seeding, the DUX4 inhibitor (11 μM or 3.6 μM/well) was added to the cells. After another 48 hrs, the old media was removed from the cells. The cells were washed with 2 mL of warm phosphate buffered saline (PBS). The PBS was aspirated, and the cells were lysed in each well with 350 μL of RLT buffer+3.5 μL of beta-mercaptoethanol (BME). The lysates were added to fresh, RNAse-free, labeled Eppendorf tubes. The cells were then physically disrupted for […] at level 4 of the bead disrupter to ensure the release of the RNA. The RNA was collected according to standard procedures (i.e., Qiagen kit instructions) as discussed below. The RNA concentrations were standardized to […]. In a PCR tube, RNA (2 μg) in a new Eppendorf tube was diluted with RNase-free water to a 9.5 μL final volume of […] RNA. DNase was used to remove any DNA contamination. A DNase Master Mix was prepared from 1.5 μL/reaction DNase solution (1 unit/μL, Promega), 3 μL/reaction 5× RT buffer (i.e., 250 mM Tris-HCl (pH 8.3), 375 mM KCl, 15 mM MgCl2, and 500 μl 0.1 M DTT; Promega MMLV), and 1 μL/reaction RNase inhibitor solution (RNasin, 40 units/μL, Promega). The DNase Master Mix was added to the standardized RNA samples (5.5 μL/sample). The samples were mixed by agitation and briefly spun down by centrifuge. The samples were heated to 37° C. for 60 min, 80° C. for 5 min, and then cooled to 4° C. The samples were stored on ice until the addition of the next reagents. An RT Reaction Master Mix was prepared from 5 μL/reaction 5× RT buffer, 2 μL/reaction dNTP solution (2.5 mM in each nucleotide), 1 μL/reaction RNase inhibitor solution (RNasin, 40 units/μL, Promega), 1.6 μL/reaction M-MLV reverse transcriptase (200 units/μL, Promega), and 13.4 μL/reaction deionized, RNase-free water. The RT Reaction Master Mix was cooled on ice until use. A 50 μM solution of Random Primer 6 random hexanucleotides (2 μL) was added to each sample. The samples were mixed by agitation and briefly spun down by centrifuge. The samples were heated to 70° C. for 5 min and then cooled to 4° C. The RT Reaction Master Mix (23 μL) was added to each sample. The samples were mixed by agitation and briefly spun down by centrifuge. To convert the RNA to cDNA, the samples were heated to 42° C. for 60 min, 95° C. for 5 min, and then cooled to 4° C. The cDNA product mixture was diluted 5:1 with deionized water (40 μL+160 μL). The samples were run in triplicate, with a methyl-CpG-binding protein 3-like 2 (MBD3L2) target primer and a eukaryotic translation elongation factor 1-alpha (EEF1A) control primer. An qPCR Master Mix was prepared for each primer and stored on ice (4° C.) until use. The qPCR Master Mix included 10 μL/reaction SYBR Green Mix (2×) (ThermoFisher), 1 μL/reaction of the primer mix (i.e., the MBD3L2 PCR Primer mix or the EEF1A Primer mix), and 4 μL/reaction deionized, RNase-free water. To set up the qPCR plate, 15 μL of the appropriate qPCR Master Mix was added to the appropriate wells for each target/primer. After all the targets/primers have been added to the wells, 5 μL of the sample was added to the corresponding wells so that each well is 20 μL total. The plate was covered with a clear sheet. An qPCR run was set up (QuantStudio 5) with the following cycle: […]

SMILES	CC50 at 72 h [1]	EC50 [2]	CC50 at 72 h [3]	qPCR MBD3L2 Inhib at 11 µM [4]
O=C1CCC(=O)N1[C@H]1C[C@@H](C(=O)Nc2ccc(-c3nc4ccccc4s3)cc2)C1 [Compound 95]	> 10 µM	> 10 µM	> 10 µM	–
O=C(CCN1C(=O)CCC1=O)Nc1ccc(-c2ccc3ncsc3c2)cc1 [Compound 43]	> 10 µM	> 10 µM	> 10 µM	–
O=C(CCCN1CCCC1=O)NC1CCCCC1c1nc2ccccc2s1 (stereo not drawn) [Compound 123]	> 10 µM	> 10 µM	> 10 µM	–
CC(=O)NCCCC(=O)Nc1coc(-c2nccs2)c1 [Compound 79]	> 10 µM	> 10 µM	> 10 µM	–
O=C(CCCN1C(=O)CCC1=O)Nc1ccc(Cc2nc3ccccc3s2)cc1 [Compound 148]	> 10 µM	> 10 µM	> 10 µM	–
CC(=O)NCCCC(=O)Nc1ccc(Cc2nc3ccccc3s2)cc1 [Compound 80]	> 10 µM	> 10 µM	> 10 µM	–
O=C(CCCCN1C(=O)CCC1=O)NC1CCC(c2nc3ccccc3s2)CC1 (stereo not drawn) [Compound 143]	> 10 µM	> 10 µM	> 10 µM	–
CC(=O)NCCCN(C)C(=O)[C@@H]1CC[C@H](c2nc3ccccc3s2)C1 [Compound 153]	> 10 µM	> 10 µM	> 10 µM	–
O=C(CCCN1CCCC1=O)NC1COCC1c1nc2ccccc2s1 (stereo not drawn) [Compound 122]	> 10 µM	> 10 µM	> 10 µM	–
CC(=O)NCCCN(C)C(=O)[C@H]1CC[C@H](c2nc3ccccc3s2)C1 [Compound 154]	> 10 µM	> 10 µM	> 10 µM	–
CC(=O)NCCCCC(=O)NC1CCC(c2nc3ccccc3s2)CC1 (stereo not drawn) [Compound 139]	> 10 µM	> 10 µM	> 10 µM	–
CC(=O)NCCCC(=O)N(C)C1CCC(c2nc3ccccc3s2)C1 (stereo not drawn) [Compound 146]	> 10 µM	> 10 µM	> 10 µM	–
CC(=O)NCCCC(=O)Nc1cc(F)cc(-c2nc3cc(F)ccc3s2)c1 [Compound 181]	> 10 µM	> 10 µM	> 10 µM	–
O=C1CCC(CCC(=O)N[C@H]2CC[C@H](c3nc4ccccc4s3)CC2)N1 (stereo partly drawn) [Compound 187]	> 10 µM	> 10 µM	> 10 µM	–
O=C1CCC(CCC(=O)N[C@H]2CC[C@@H](c3nc4ccccc4s3)CC2)N1 (stereo partly drawn) [Compound 186]	> 10 µM	> 10 µM	> 10 µM	–
CC(=O)NCCCC(=O)N[C@H]1CCC[C@H]1c1nc2ccccc2s1 [Compound 136]	> 10 µM	> 10 µM	> 10 µM	–
O=C(CCCN1C(=O)CCC1=O)N[C@H]1CC[C@@H](c2nc3ccccc3s2)C1 [Compound 160]	> 10 µM	> 10 µM	> 10 µM	–
O=C(CCCN1C(=O)CCC1=O)N[C@H]1C[C@H](c2nc3ccccc3s2)C1 [Compound 98]	> 10 µM	> 10 µM	> 10 µM	–
O=C(CCCN1C(=O)CCC1=O)N[C@@H]1CC[C@H](c2nc3ccccc3s2)C1 [Compound 127]	> 10 µM	> 10 µM	> 10 µM	–
O=C(CCC(=O)c1cccs1)Nc1ccc(-c2nc3ccccc3s2)cc1 [Compound 25]	> 10 µM	> 10 µM	> 10 µM	–
O=C(CCCN1C(=O)CCC1=O)N[C@H]1CC[C@H](c2nc3ccccc3s2)C1 [Compound 128]	> 10 µM	> 10 µM	> 10 µM	–
CC(=O)NC1CCC(C(=O)NC2CCC(c3nc4ccccc4s3)C2)C1 (stereo not drawn) [Compound 135]	> 10 µM	> 10 µM	> 10 µM	–
O=C(CCCCN1C(=O)CCC1=O)Nc1ccc(-c2nc3ccccc3s2)o1 [Compound 167]	> 10 µM	–	> 10 µM	YES
N#Cc1ccc2nc(-c3ccc(NC(=O)CCN4C(=O)CCC4=O)cc3)sc2c1 [Compound 54]	1 to 10 µM	–	> 10 µM	YES
O=C(CCN1CCCC1=O)Nc1ccc(-c2nc3ccccc3s2)cc1 [Compound 18]	> 10 µM	–	> 10 µM	YES
O=C(CCCc1cccnc1)Nc1ccc(-c2nc3cc(F)ccc3s2)cc1 [Compound 155]	> 10 µM	–	1 to 10 µM	YES
O=C(CCc1cccnc1)Nc1ccc(-c2nc3ccccc3s2)nc1 [Compound 83]	> 10 µM	–	> 10 µM	YES
